According to publication PMC8131842, “Therapeutic Potential of Vasoactive Intestinal Peptide and its Derivative Stearyl-Norleucine-VIP in Inflammation-Induced Osteolysis” (Frontiers in Pharmacology, 2021):

How the values were obtained:
[1] = tested on: rats; assay: Study 004–1 repeated dose toxicity in rats: a 13-weeks study; assay type: in vivo, rat
Procedure: (§1) Toxicology. We performed toxicology studies for SNV that consisted of acute subcutaneous, intravenous and oral toxicity in rats, acute dermal toxicity in rabbits, skin sensitization using adjuvant and patch test in guinea pigs, and single and repeated (for 13 weeks) dose toxicity studies in rats. The latter was a 90-days repeated dose toxicity study, consisting of SNV once a day at three different doses to the penis and vagina of male and female rats, respectively. The compound was tested for the treatment of erectile dysfunction. The active dose (7 µg SNV) was chosen as the lowest dose for the study. The highest dosage group in the repeated dose toxicity study received 3,500 µg ([Gozes et al., 1994]). For study 001 (parts 1 through 3), the 1× dose consisted of 0.5 mg SNV dissolved in 7.1 ml vehicle (3.55 ml 10% Sefsol [glycerin monocaprylate] + 3.55 ml isopropanol) and 100µl/animal were administered; the 1000X dose consisted of 91 mg SNV dissolved in 1.3 ml vehicle (0.65 ml 10% Sefsol +0.65 ml isopropanol) and 100µl/animal were administered. For studies 002 through 004, the indicated doses of SNV (Table 1) were dissolved in 0.25 ml 10% Sefsol +0.25 ml 40% isopropanol (vehicle). The methodology for each of the toxicology studies is detailed in Table 1.
The study named 004-1, was the most protracted and detailed toxicology study. We carried it out in rats as a repeated dose toxicity study on target external organs, the penis and the vagina. The structure of the study included a detailed pathological evaluation of all body organs.

[2] = tested on: Primary murine macrophages/preosteoclasts; assay: MTT viability assay; assay type: cell-based, mouse; conditions: 10^-6 M, 20 ng/ml M-CSF, 1, 3 and 5 days of treatment, N=5
Procedure: MTT assay. For proliferation assay, macrophages were plated (4000 cells/well) into 96-well plate with standard medium supplemented with 20 ng of M-CSF. Cells were treated as indicated with either TiP, SNV, VIP (10^−6 M) or vehicle at first day of incubation. Cells viability was determined using dimethylthiazol-diphenyl-tetrazolium-bromide (MTT) after 1, 3 or 5 days. MTT was added to a final concentration of 5 mg/ml and incubated for 4 h at 37°C. After complete solubilization of the die in DMSO, plates were read at 570 nm in a colorimetric plate reader.
FIGURE 4 VIP and SNV alleviate the osteoclastogenic effect of TiP-induced inflammation. (A) Primary BMDM were exposed to TiP and RNA was collected after 24 h. mRNA expression are presented as Mean±SD fold change versus Control. * p<0.05 vs. Control. (B-D) Primary murine preosteoclasts were cultured in 20 ng/ml M-CSF and 50 ng/ml RANKL for 48 h. Conditioned medium from macrophages (Control) and macrophages exposed to Ti particles (Ti, as in A) was then added together with 10^-6M of VIP or SNV (or saline) for 48 h before TRAP staining. Data are Mean±SD for osteoclast % surface area (B) and number per well (C). (D) Representative images all acquired at a 4x original magnification. The scale bar for all images is in the upper left panel. n=8, #p<0.05 vs. Control; *p<0.05 vs. Ti, ANOVA. […]

[3] = matrix not given, ref Gozes et al., 1994, 1996; cited from earlier work
Source text: (§2) VIP derivatives and conjugates were designed to include a lipophilic moiety or a shortened VIP chain ([Gozes and Fridkin, 1992]; [Gozes et al., 1994]; [Gozes et al., 1995]; [Gozes et al., 1996]; [Gozes et al., 1999]). Stearyl-norleucine-VIP (Stearyl-Nle^17VIP, SNV) is a lipophilic compound consisting of a VIP molecule with an N-terminal attachment of stearic acid to increase cell and tissue bioavailability and an exchange of the oxidation-vulnerable methionine at position 17 with the stable norleucine.

[4] = tested on: neuroprotection; conditions: ref Ashur-Fabian et al., 1999; cited from earlier work
Source text: as §2

[5] = tested on: Primary murine preosteoclasts; assay: Osteoclastogenesis assay with conditioned medium from TiP-exposed macrophages (TRAP staining); assay type: cell-based, mouse; conditions: 10^-6 M, conditioned medium of TiP-exposed macrophages
Procedure: Osteoclastogenesis assay. Preosteoclasts, prepared like the BMDMs, were plated in 96-well plates (7,000 cells per well, for TRAP staining, see below) or in 6-well plates (200,000 cells per well, for RNA) in standard medium supplemented with 20 ng/ml M-CSF and 50 ng/ml RANKL (R&D Systems, Minneapolis, MN, United States). After 48 h, the medium was replaced by the conditioned medium of BMDM, supplemented with RANKL and M-CSF. Where indicated, 10^−6 M SNV or VIP were added. […], cells were stained using a TRAP kit (Sigma-Aldrich, St. Louis, MO, United States), and multinucleated (>3 nuclei) TRAP-positive cells were defined as osteoclasts. Images were acquired at an original magnification of ×4 (Evos FLC, Life Technologies, MS, United States). The number of osteoclasts and the total osteoclast area were measured using ImageJ software (National Institutes of Health, Bethesda, MD, United States).
FIGURE 4 VIP and SNV alleviate the osteoclastogenic effect of TiP-induced inflammation. (A) Primary BMDM were exposed to TiP and RNA was collected after 24 h. mRNA expression are presented as Mean±SD fold change versus Control. * p<0.05 vs. Control. (B-D) Primary murine preosteoclasts were cultured in 20 ng/ml M-CSF and 50 ng/ml RANKL for 48 h. Conditioned medium from macrophages (Control) and macrophages exposed to Ti particles (Ti, as in A) was then added together with 10^-6M of VIP or SNV (or saline) for 48 h before TRAP staining. Data are Mean±SD for osteoclast % surface area (B) and number per well (C). (D) Representative images all acquired at a 4x original magnification. The scale bar for all images is in the upper left panel. n=8, #p<0.05 vs. Control; *p<0.05 vs. Ti, ANOVA. (E) Primary murine macrophages/preosteoclasts were cultured in 20 ng/ml M-CSF and Ti particles, 10^-6M of VIP or SNV, or saline only. MTT viability assay was performed after 1, 3 and 5 days and presented as optical density values. N=5, no statistical differences were found between the treatment groups. Data are Mean±SD in arbitrary OD units.

[6] = tested on: albino female rabbits; assay: Study 002 acute dermal toxicity in rabbits; assay type: in vivo, rabbit; conditions: single dermal application, 7 mg/site (1000X)
Procedure: as §1

[7] = tested on: rats; assay: Study 001–2 acute intravenous toxicity in rats; assay type: in vivo, rat; conditions: for Necrotic reaction at the site of injection: vehicle group 2: 55%
Procedure: as §1

[8] = daily topical for 13 weeks, all doses
[9] = 20 ng/ml M-CSF + 50 ng/ml RANKL, TRAP staining, n=8, vs Ti

Stearyl–HSDAVFTDNYTRLRKQ-Nle-AVKKYLNSILN-NH2 [SNV, Stearyl-norleucine-VIP, lipophilic VIP derivative with N-terminal stearic acid and norleucine in place of methionine at position 17]
Clinical signs (penile edema, erythema and staining): relation to dose ([1]; daily topical for 13 weeks, 7 µg, 0.7 mg and 3.5 mg/rat): not dose-related
Mortality ([1]; daily topical for 13 weeks, 7 µg/rat (low dose)): None. Only one death took place in a male from the low dose group due to massive abdominal hemorrhage caused by a nephroblastoma
Mortality ([1]; daily topical for 13 weeks, 0.7 mg/rat): None. Only one death took place in a male from the low dose group due to massive abdominal hemorrhage caused by a nephroblastoma
Mortality ([1]; daily topical for 13 weeks, 3.5 mg/rat): None. Only one death took place in a male from the low dose group due to massive abdominal hemorrhage caused by a nephroblastoma
Pathological evaluation of all body organs (macroscopic and microscopic changes) ([1]; daily topical for 13 weeks, all dosages): No drug-related macroscopic or microscopic changes
Hematology and clinical chemistry parameters [1, 8]: No dose related or sex related biologically meaningful treatment effects
Serious adverse effects, conclusion [1, 8]: did not cause any serious adverse effects at any of the doses tested
Treatment-related adverse effects ([1]; daily topical on the sex organs for 13 weeks, 7 µg, 0.7 mg and 3.5 mg/rat, SPF S.D. rats, 10 males + 10 females per group): No related adverse effects were detected throughout the study
Viability of the cells (MTT, optical density) [2]: neither VIP nor SNV affected the viability
Half-life [3]: 15 min
Potency relative to VIP in neuroprotection [4]: 1000 fold
Inhibitory effect on osteoclasts compared with VIP [5]: stronger inhibitory effect on osteoclasts than VIP
Osteoclast area [5, 9]: attenuated
Osteoclast number [5, 9]: attenuated
Dermal irritation, conclusion [6]: Under the conditions of this study, single dermal application of the vehicle did not cause irritation. The 1000X dose transient effect was barely perceptible
Mortality ([6]; N = 4): None
Rabbits with slight barely perceptible erythema ([6]; N = 4, disappeared within 72 h following application): 50%
Mortality ([7]; intravenous, 7 µg/rat (1×, group 3)): 7 rats (3 males and 4 females) out of 12 died within 3 h after administration in group 4 (SNV -1000X). One rat died in group 2 within 5–24 h after administration. No mortality occurred in groups 1 and 3
Necrotic reaction at the site of injection ([7]; intravenous, 7 µg/rat (group 3)): 58%
Necrotic reaction at the site of injection ([7]; intravenous, 7 mg/rat (group 4)): 100%
Reactions: body weight ([7]; intravenous, all groups, initial weight loss recovered during the study): Necrotic reaction was observed at the site of injection in 55% group 2, 58% group 3 and 100% group 4. Most surviving rats displayed normal body weight, and some weight loss observed initially was recovered during the study
Acute intravenous median lethal dose, male rats ([7]; tail vein, S.D. rats, estimated): 7 mg/male rat
